Data taken from US20110275103A1, “EMISSION RATIOMETRIC REPORTERS OF MEMBRANE PDK1 ACTIVATION” (THE JOHNS HOPKINS UNIVERSITY, priority 2010, published 2011).
“Also recorded” adds a separate entry of the source.

Tests used:
Format in all cases: cell-based
Akt [1] = experiment: FRET-based Akt activity reporter (AktAR) imaging in 3T3 L1 preadipocytes; details: pre-incubation with 50 μM C2-ceramide
Experimental: (§1) Cells were plated on sterilized glass coverslips in 35 mm dishes and were grown to 40% confluency in medium at 37° C. with 5% CO2, then transfected with Lipofectamine 2000. In the case of NIH 3T3 and HeLa cells, the cells were serum-starved for 24 h. For imaging, cells were washed with Hanks' balanced salt solution (HBSS) and imaged in the dark at room temperature. Images were acquired on a Zeiss Axiovert 200M microscope with a cooled charge-coupled device camera, as previously described (8). Dual-emission ratio imaging was performed with a 420DF20 excitation filter, a 450DRLP dichroic mirror, and two emission filters. For CFP and YFP, 475DF40 and 535DF25, respectively, were used. Exposure times were 50-500 ms. Images were taken every 30 s. Imaging data were analyzed with Metafluor 6.2 software (Universal Imaging, Downingtown, Pa.). Fluorescence images were background-corrected by deducting the background (regions with no cells) from the emission intensities of CFP or YFP. Traces were normalized by taking the emission ratio before addition of drugs as 1.

Akt [2] = experiment: Membrane translocation of Akt PH domain in 3T3 L1 preadipocytes; details: pre-incubation with 50 μM C2-ceramide
Experimental: as §1

PDK1 [3] = experiment: FRET emission ratio imaging of Lyn-PARE in 3T3 L1 preadipocytes; details: pre-incubation with 50 μM C2-ceramide
Text: (§2) PARE was generated by sandwiching full-length PDK1 between a FRET pair, ECFP and Citrine. Lyn-PARE and PARE-Kras were generated by the addition of the N-terminal portion of the Lyn kinase gene (GCIKSKRKDKD; SEQ ID NO:6) at the 5′ end and a C(A)2X tag (C is cysteine, A is an aliphatic amino acid, and X is any amino acid) at the 3′ end (KKKKKSKTKCVIM; SEQ ID NO:7) of PARE, respectively. Lyn-PARE R472/474A was generated by site-directed mutagenesis. PTEN A4 (fused with a C-terminal fluorescent protein) was targeted to raft and non-raft regions of plasma membrane with the same set of targeting motifs. All of the constructs were generated in a modified version of the mammalian expression vector pcDNA 3.
Cells were plated on sterilized glass coverslips in 35 mm dishes and were grown to 40% confluency in medium at 37° C. with 5% CO2, then transfected with Lipofectamine 2000. In the case of NIH 3T3 and HeLa cells, the cells were serum-starved for 24 h. For imaging, cells were washed with Hanks' balanced salt solution (HBSS) and imaged in the dark at room temperature. […] Imaging data were analyzed with Metafluor 6.2 software (Universal Imaging, Downingtown, Pa.). Fluorescence images were background-corrected by deducting the background (regions with no cells) from the emission intensities of CFP or YFP. […]

PDK1 [4] = experiment: FRET emission ratio imaging of PDK1 activation reporters (PARE, Lyn-PARE, PARE-Kras) in NIH 3T3 cells; details: for emission ratio change of the non-raft-targeted reporter (PARE-Kras) / emission ratio change of the untargeted reporter (PARE) / response of the Lyn-PARE R472/474A mutant reporter / increase in the yellow-to-cyan emission ratio of the raft-targeted PDK1 activity reporter (Lyn-PARE): serum-starved NIH 3T3 cells
Text: as §2, §1

Akt [5] = experiment: Membrane translocation of YFP-tagged Akt PH domain in NIH 3T3 cells
Experimental: as §1

3T3 L1 adipocytes = experiment: Glucose uptake assay ([14C]2-deoxyglucose) in 3T3 L1 adipocytes; details: pre-incubation with 50 μM C2-ceramide for 60 min, 100 nM insulin, n=3
Experimental: 3T3-L1 preadipocytes were grown to confluency in 10% calf serum/DMEM and stimulated with induction media (DMEM containing 10% fetal bovine serum, 1 μg/ml insulin, 1 μM dexamethasone, and 0.5 mM 3-isobutyl-1-methylxanthine) at 2 days post-confluency.
The medium was changed to insulin medium (1 μg/ml) 2 days after induction. Two days later, the medium was replaced with 10% fetal bovine serum/DMEM and then changed every 2 days. Full differentiation was achieved by 8 days after induction.
Adipocytes were incubated in Krebs-Ringer bicarbonate buffer supplemented with 30 mM HEPES, pH 7.4, with 0.5% BSA (KRBH/BSA) and 2.5 mM glucose for 3 h. The cells were washed once with PBS and incubated in BSA/KRH (25 mM HEPES-NaOH, pH 7.4, with 120 mM NaCl, 5 mM KCl, 1.2 mM MgSO4, 1.3 mM CaCl2, and 1.3 mM KH2PO4) without glucose for 15 min. The cells were then incubated with 100 nM insulin for 15 min. The assay was initiated by the addition of ^[14C]2-deoxyglucose (0.4 μCi/sample) and 5 mM glucose and terminated after 15 min by washing the cells three times with ice-cold PBS. Cells were solubilized in 1% Triton-100, and cell-associated radioactivity was determined by scintillation counting.

PTEN = experiment: Sucrose density gradient fractionation of crude plasma membranes and anti-PTEN Western blot, 3T3-L1 adipocytes
Experimental: Cells were washed with ice-cold PBS and then lysed in RIPA lysis buffer containing protease inhibitor cocktail (Roche), 1 mM PMSF, 1 mM NaVO4, 1 mM NaF and 25 nM calyculin A. Total cell lysates were incubated on ice for 30 min, then centrifuged at 4° C. for 20 min. Total protein was separated with 7.5% SDS-PAGE and transferred to nitrocellulose membranes. The membranes were blocked with TBS containing 0.05% Tween-20 and 1% bovine serum albumin, then incubated with primary antibodies overnight at 4° C. After incubation with the appropriate horseradish peroxidase-conjugated secondary antibodies, the bands were visualized by enhanced chemiluminescence. The intensity of the bands was quantified with ImageJ software.
Cells were rinsed twice with ice-cold PBS and harvested into 10 mM Tris (pH 7.4) with 150 mM NaCl, 5 mM EDTA, 2 mM PMSF, 2 mM NaVO4, 2 mM NaF, and 50 nM calyculin A, with protease inhibitor cocktail. The cells then were subjected to mechanical disruption with 15 strokes of a homogenizer. Homogenates were centrifuged at 2,300×g for 5 min at 4° C., and the supernatant was centrifuged at 18,000×g for 50 min at 4° C. (32). The resulting membrane pellets were resuspended in 10 mM Tris (pH 7.4) with 150 mM NaCl, 5 mM EDTA, 2 mM PMSF, 2 mM NaVO4, 2 mM NaF and 50 nM calyculinA A, with protease inhibitor cocktail and 1% Triton X-100, for sucrose density gradient fractionation. […]

Akt [6] = experiment: FRET-based Akt activity reporter (AktAR) imaging in NIH 3T3 cells; details: pre-incubation with 50 μM C2-ceramide for 60 min
Experimental: as §1

PDK1 [7] = experiment: FRET emission ratio imaging of PDK1 activation reporters in HeLa cells; details: serum-starved HeLa cells; 100 ng/ml EGF
Text: as §2, §1

[8] = NIH 3T3 cells, pre-incubation with 50 μM C2-ceramide for 60 min

CCCCCCCCCCCCC/C=C/[C@@H](O)[C@H](CO)NC(C)=O [C2-ceramide]
effect on response of AktAR (Akt [1]): abolished
effect on membrane translocation of Akt PH domain (Akt [2]): abolished
effect on response of Lyn-PARE (PDK1 [3]): abolished
effect on response of Lyn-PARE (PDK1 [4]; [8]): abolished
effect on membrane translocation of Akt PH domain (Akt [5]; [8]): abolished
effect on insulin-induced glucose uptake (3T3 L1 adipocytes): blocked insulin-induced glucose uptake; also recorded: inhibited insulin-induced glucose uptake
increase in the amount of PTEN found in raft fractions (PTEN; pre-incubation with 50 μM C2-ceramide, n=3): 8.8±2.1 fold
level of PTEN in non-raft regions of adipocyte membranes (PTEN; pre-incubation with C2-ceramide): without changing the level of PTEN
effect on response of AktAR (Akt [6]): abolished

OO [H2O2]
effect on Lyn-PARE response to PDGF suppressed by targeted PTEN A4 (PDK1 [4]; NIH 3T3 cells, 50 mM H2O2): restored
effect on Akt PH membrane translocation suppressed by Lyn-PTEN A4 (Akt [5]; 50 mM H2O2): restored the membrane translocation
effect on inhibition of Akt-PH translocation by non-raft-targeted PTEN A4 (PTEN A4-Kras) (Akt [5]; H2O2 treatment): reversed

EGF: epidermal growth factor, purchased from Sigma-Aldrich (NSDSECPLSHDGYCLHDGVCMYIEALDKYACNCVVGYIGERCQYRDLKWWELR; UniProt P01133 971-1023, looked up)
emission ratio change of the non-raft-targeted reporter (PARE-Kras) (PDK1 [7]): but not PARE (n=4) or PARE-Kras
emission ratio change of the raft-targeted reporter (Lyn-PARE) (PDK1 [7]): induced an emission ratio increase
emission ratio change of the untargeted reporter (PARE) (PDK1 [7]): but not PARE

PDGF
emission ratio change of the non-raft-targeted reporter (PARE-Kras) (PDK1 [4]; 50 ng/ml PDGF): no emission ratio change
emission ratio change of the untargeted reporter (PARE) (PDK1 [4]; 50 ng/ml PDGF): no emission ratio change
response of the Lyn-PARE R472/474A mutant reporter (PDK1 [4]; 50 ng/ml PDGF): lack of response
increase in the yellow-to-cyan emission ratio of the raft-targeted PDK1 activity reporter (Lyn-PARE) (PDK1 [4]; 50 ng/ml PDGF, n=7): 19±4%

pervanadate [PV]
emission ratio change of the non-raft-targeted reporter (PARE-Kras) (PDK1 [4]; 100 μM PV): Only the raft-targeted PDK1 activity reporter showed an increase
emission ratio change of the untargeted reporter (PARE) (PDK1 [4]; 100 μM PV): no emission ratio change
increase in the yellow-to-cyan emission ratio of the raft-targeted PDK1 activity reporter (Lyn-PARE) (PDK1 [4]; 100 μM PV, n=5): 20.7±3.3%
response of the Lyn-PARE R472/474A mutant reporter (PDK1 [4]; PV): lack of response
